Experimental data as given in a melting point compilation (Tetko et al.; mined from patent text by program, amines drawn as free bases though some values may be those of a salt).

| melting point | Structure (SMILES) |
| --- | --- |
| 98 to 100 °C | CCOC(=O)c1cnc(C)nc1-c1ccc(OC)c(OC)c1 |
| 140 to 144 °C | CCC(C)(C)c1ccc(OCC(=O)O)c(C(C)(C)C)c1 |
| 44 °C | CCCCCCCOc1ccc(C2CCC(=O)O2)cc1 (single isomer, unassigned) |
| 60 to 67 °C | CCOC(=O)C(=CNc1cc(C)nn1CC)C(=O)OCC |
| 180 to 182 °C | COC(=O)C1OC(Oc2ccc(C=O)cc2[N+](=O)[O-])C(OC(C)=O)C(OC(C)=O)C1OC(C)=O (configuration not stated) |
| 267 to 268 °C | COc1cc(-c2cnc3[nH]cc(C(=O)C45CC6CC(CC(C6)C4)C5)c3n2)cc(OC)c1OC |
| 174 to 176 °C | NC(=O)c1cnn2c1N(C(=O)CCl)CC=C2c1cccc(C(F)(F)F)c1 |
| 186 to 187 °C | CCOC(=O)C(=O)Nc1sccc1C(N)=O |
| 97 to 98 °C | COc1ccc(C(=O)C(=O)c2ccccn2)cc1 |
| 165 to 167 °C | Cc1cc(SCc2ccc(OCc3ccc(C(F)(F)F)cc3)cc2)c2c(c1OCC(=O)O)CCC2 |
| 80 °C | COC(=O)C1Cc2c(C)ccc(C)c2N1 (configuration not stated) |
| 142 to 143 °C | COc1ccc(COc2nn(Cc3ccccc3)cc2C=O)cc1OCc1nc(-c2ccco2)oc1C |
| 64 to 66 °C | Cc1ccc(S(=O)(=O)OCCNC(=O)OC(C)(C)C)cc1 |
| 94 to 97 °C | CCOCc1cccc2[nH]c3cnc(C(=O)OCC)c(COC)c3c12 |
| 136 °C | CC(C)Oc1c(C(=O)O)n(C)c2ccc(OCc3ccccc3)cc12 |
| 166 to 172 °C | COC(=O)c1ccc(=O)[nH]c1 |
| 135 to 137 °C | CC(C)(C)OC(=O)NC1COCCCC=CC2CC2(C(=O)NS(=O)(=O)C2CC2)NC(=O)C2CC(OC(=O)c3ccccc3)CN2C1=O (configuration not stated) |
| 163 to 164 °C | CC(=O)NC1CC(C)(C)N(OCc2cccc(C)c2)C(C)(C)C1 |

| melting point | Structure (SMILES) |
| --- | --- |
| 176 to 178 °C | NCCNC(=O)COc1ccc(C2=NNC(=O)CC2)cc1 |
| 114 to 116 °C | CC(=O)NC[C@H]1CN(c2ccc(N3CCC4(CC3)CSCO4)c(F)c2)C(=O)O1 |
| 149 to 150 °C | CCOc1cc2cc(C(=O)OC)c(C(=O)OC)c(-c3ccncc3)c2cc1OCC |
| 186 to 188 °C | CCCCNN1C2=C(C=C(C)C1C(=O)OCC)CCC(=O)N2 (configuration not stated) |
| > 280 °C | CC(C)(C)c1cc(-n2ccc(=O)[nH]c2=O)cc(Br)c1Cl |
| 190 to 195 °C | CCCCOC(=O)c1cc2c3ccccc3[nH]c(=O)n2n1 |
| 148 to 150 °C | COCc1cc2c(C(=O)Nc3ccnn3C)ccc(OC)c2o1 |
| 72 to 74 °C | CCOc1nn(-c2cccc3c2OC(C)(C)C3)c(=O)o1 |
| 112 to 113 °C | CC(=O)Oc1cc(/C=C/c2ccc(OC(=O)C(C)(C)Oc3ccc(C(=O)c4ccc(Cl)cc4)cc3)cc2)cc(OC(C)=O)c1 |
| 191 to 193 °C | Cc1nc2ccc(-c3ccc(OCC4(NC(=O)C5CC5)COC4)cc3)nn2c1-c1cnc(N)c(C(F)(F)F)c1 |
| 102 to 104 °C | Cn1ccnc1Sc1c(Cl)cccc1[N+](=O)[O-] |
| 103 to 105 °C | CC(Oc1cccc(C=Cc2ccc3ccc(Cl)cc3n2)c1)C(=O)O (single isomer, unassigned; (-)) |
| 142 to 144 °C | CC(C)(C)c1ccc2c(c1)C(=O)NC2 |
| 101 °C | C=C(C)c1ccc2cc(OC)ccc2c1 |
| 134 °C | CCOC(=O)C=Cc1ccc(N2CCCC2=O)cc1 |
| 98 to 99 °C | COC(=O)CC(CC(=O)OC)Sc1cc(OC)cc(OC)c1 |
| 182 °C | CC12CCC(S(=O)(=O)C(F)(F)F)=CC1=CCC1C2CCC2(C)C(C(=O)O)CCC12 (configuration not stated) |
| 146 to 147 °C | CC(C)(Nc1cc(Cl)ccc1[N+](=O)[O-])C(=O)O |

The remaining lines, values behind:

| Structure (SMILES) | melting point |
| --- | --- |
| C=C[C@H]1CN2CC[C@H]1C[C@H]2[C@H](OC(=O)c1ccc(OCCCCCC)cc1)c1ccnc2ccccc12 | 70 °C |
| CCC1(CC)OC(c2ccc(S(C)(=O)=O)cc2)=C(Br)C1=O | 130 to 131 °C |
| O=C1Nc2ccccc2SC1CCCCN1CCN(c2ccc(F)cc2)CC1 (configuration not stated) | 150 to 151 °C |
| N#Cc1cc(Cl)ccc1Oc1cc(Br)c(F)cc1O | 208 to 210 °C |
| Nc1ccc(Cl)cc1C1=CCN(C/C=C/c2ccc(Cl)cc2)CC1 | 168 to 170 °C |
| CCCC1=Cc2c3c(c(C)c(C)c2C1=O)OC(C(=O)O)C3 (configuration not stated) | 212 °C |
| NS(=O)(=O)c1c(Cl)ccc(NC(=O)Nc2cccc(Cl)c2Cl)c1O | 241 to 242 °C |
| COc1ccc(-c2ccc3c(c2)c(C)c(-c2ccccc2)n3Cc2ccccc2)cc1 | 117 to 122 °C |
| Nc1ccc(C(=O)N2Cc3ccccc3Sc3ccccc32)cc1 | 52 to 55 °C |
| CSC(SC)=C(C(O)C(C)(C)C)n1cncn1 (configuration not stated) | 108 to 111 °C |
| O[C@@H]1CN=C(c2ccoc2)O[C@H]1c1ccccc1 (racemic) | 160 °C |
| CCn1c(CCO)nc(N2CCc3ccccc3CC2)c(C#N)c1=O | 114 to 115 °C |
| C#CCOc1cc(OCC=C)ccc1-c1nc2ncccc2[nH]1 | 210 °C |
| NC(=O)c1c(OCc2ccccc2)ccc2ccccc12 | 153 to 154 °C |
| CCCOCCCCCCCCCC(=O)O | < 30 °C |
| Cc1cccc(-c2nc3cccnn3c2-c2ccnc(NCc3ccco3)c2)c1 | 150 to 151 °C |
| O=C1N[C@H](Cc2ccc(C(F)(F)F)cc2)[C@H](c2ccccc2)O1 (racemic) | 158 to 159 °C |
| N#Cc1cnc2cc(F)c(OCc3ccccc3)cc2c1Cl | 159 to 160 °C |
| Cc1ccc2c(c1)Cn1ccnc1N2 | 265 °C |
| CN(C(=O)[C@@H](OP(c1ccccc1)c1ccccc1)C(C)(C)C)P(c1ccccc1)c1ccccc1 | 95 to 96 °C |
| CC1(C)OC[C@H](Cn2cc3nccc(I)c3n2)O1 | 85 to 87 °C |
| Cc1coc(-c2cccnc2)n1 | 40 °C |

| Structure (SMILES) | melting point |
| --- | --- |
| CCOc1cc(-c2cc(C(F)(F)F)n3cnc(-c4ccnc(C)c4)c3n2)ccc1C(F)(F)F | 177 °C |
| O=Cc1cnn2c(-c3cccc(C(F)(F)F)c3)ccnc12 | 168 to 170 °C |
| CCCn1cncc1-c1ccc(O)cc1 | 160 °C |
| CC(C)N1C(=O)c2cncnc2Nc2ccccc21 | 204 to 206 °C |
| NC(N)=Nc1nc(-c2cccc(N)n2)cs1 | 242 °C |
| CCOC(=O)c1cn(-c2nccs2)c2nc(Cl)cc(Cl)c2c1=O | 226 to 227 °C |
| COc1ccc(N2Cc3nc(CO)nn3-c3cccnc32)cc1 | 190 to 194 °C |
| CN(C)/C(=C1/Sc2ccccc2C1=O)c1ccccc1 | 179 to 180 °C |
| CN(C)CCNC(=O)c1cn(C)c(=O)c2cc3ccccc3nc12 | 192 to 194 °C |
| CCSc1nccnc1C(=O)CC | 45 to 48 °C |
| N#CC(=NOC(=O)OCc1ccccc1)c1ccccc1 | 73 to 75 °C |
| CCn1c(=O)n(OCc2ccccc2)c(=O)c2cc(F)c(N3CCCC3)cc21 | 174 to 176 °C |
| CC(C)(CN)c1ccc2nc(-c3ccccc3)[nH]c2c1 | 185 to 187 °C |
| Cc1ccc2oc(-c3ccccc3)nc2n1 | 148 to 149 °C |
| CC12CC(=O)C3C(CCC4CC(O)CCC43C)C1CCC2C(=O)CCO (configuration not stated) | 156 to 158 °C |
| O=c1cnc2c(NCCO)nc(SCc3cccc(Cl)c3F)nc2[nH]1 | 195 to 196 °C |
| O=Cc1cc(Cl)c(Cl)c(Cl)n1 | 84 to 88 °C |
| O=c1c(Cc2cccnc2)cn2c3cc(Cl)ccc3c3cc(OCCCO)cc1c32 | 137 to 139 °C |
| CC(C)(C)OC(=O)N1CCCC1COC(=O)N1CCN(c2cc(N3CCCC3)nc(N3CCCC3)n2)CC1 (single isomer, unassigned; (-)) | 147 °C |
| Cc1cccc(NC(=O)NC2N=C(c3ccccc3F)c3ccccc3N(Cc3cc(C(C)(C)C)ccn3)C2=O)c1 (racemic) | 142 to 144 °C |
| O=C1Nc2cc(Br)ccc2N2CCc3cccc1c32 | 255 to 257 °C |
| S=C1CC(c2ccc(Cl)cc2)Oc2ccccc21 (configuration not stated) | 116 to 120 °C |

| Structure (SMILES) | melting point |
| --- | --- |
| C=CCC1(CC=C)c2cccc(OC)c2C(=O)c2cccc(Cl)c21 | 165 to 166 °C |
| N#Cc1c[nH]c2c(NS(=O)(=O)c3ccc(N)nc3)cccc12 | > 300 °C |
| O=CN(O)C(CS(=O)(=O)c1ccc(-c2ccc(OC(F)(F)F)cc2)cc1)c1ccccn1 (configuration not stated) | 116 to 118 °C |
| N#Cc1nn(-c2c(Cl)cc(C(F)(F)F)cc2Cl)cc1C1(C(F)(F)F)CC1 | 141 °C |
| CCCCCCCCC=CCCCCCCCCn1c(=O)[nH][nH]c1=O | 120 °C |
| O=C(Nc1ccc(CCN2C(=O)C3CCCC3=Nc3ccccc32)cc1)OCc1ccccc1 (configuration not stated) | 103 to 105 °C |
| CCc1cc(-c2nnc3c4ccccc4c(OCc4ncn(C)n4)nn23)no1 | 236 to 238 °C |
| COC(=O)c1cccc(-c2cc(-c3ccc(C(F)(F)F)cc3)on2)c1 | 139 to 140 °C |
| CC1(C)CC(=O)c2c(ncc3[nH]c4cc(F)ccc4c23)C1 | 271 to 273 °C |
| CN1C(=O)COc2cc3c(cc21)C1(CO3)C(=O)Nc2ccccc21 (configuration not stated) | > 250 °C |
| c1ccc(-c2cc3ccncc3[nH]2)cc1 | 222 to 224 °C |
| CSc1nc(C)ccc1NC(=O)CCCCCSc1nc2ccccc2[nH]1 | 138 to 140 °C |
| CN1C(=O)CC[C@]2(C)c3ccc(-c4cc(C(F)(F)F)nc5c(C(F)(F)F)cccc45)cc3CC[C@@H]12 | 100 to 106 °C |
| CCCCCCCCC#CCC#CCC#CCS(=O)(=O)CC(=O)NCC | 83 °C |
| Cn1cc(-c2cc(-c3cccnc3)ccn2)n(-c2ccc(C(C)(C)C#N)cc2)c1=O | 180 °C |
| OCc1ccc(OCc2ccccc2)cc1O | 88 to 90 °C |
| CCOC(=O)C1=CC(C(=O)c2ccccc2O)=CN2CCc3c([nH]c4ccccc34)C12C(=O)OCC (configuration not stated) | 209 °C |
| CC(=O)NC12CC3CC(C)(CC(C)(C3)C1)C2 | 113 to 114 °C |
| O=C(NCc1cccs1)C1(c2ccc(Cl)cc2)CCCC1 | 119 to 120 °C |
| O=C(NCCSCc1ccccc1Cl)c1c(Cl)cccc1Cl | 110 to 112 °C |
| CCC(CC)(c1ccc(F)cc1F)c1c[nH]c2c(NS(C)(=O)=O)cccc12 | 144 to 147 °C |
| N#Cc1ccc(-c2cn(-c3ccc(OCC(F)(F)F)cc3)cn2)cc1 | 179 °C |
